# What was measured:
# Type in all cases: in vivo
# [1] = test system: barnyardgrass (Echinochloa crus-galli); assay: Test B pre-/postemergence plant response
# From the text: (§1) Seeds of plant species selected from bamyardgrass (Echinochloa crus-galli), kochia (Kochia scoparia), ragweed (common ragweed, Ambrosia elatior), Italian ryegrass (Lolium multiflorum), large (Lg) crabgrass (Digitaria sanguinalis), giant foxtail (Setaria faberii), momingglory (Ipomoea spp.), pigweed (Amaranthus retroflexus), velvetleaf (Abutilon theophrasti), wheat (Triticum aestivum), and corn (Zea mays) were planted into a blend of loam soil and sand and treated preemergence with a directed soil spray using test chemicals formulated in a non-phytotoxic solvent mixture which included a surfactant. At the same time, plants selected from these crop and weed species and also blackgrass (Alopecurus myosuroides), and galium (catchweed bedstraw, Galium aparine) were planted in pots containing the same blend of loam soil and sand and treated with postemergence applications of test chemicals formulated in the same manner. Plants ranged in height from 2 to 10 cm and were in the one- to two-leaf stage for the postemergence treatment. Treated plants and untreated controls were maintained in a greenhouse for approximately 10 days, after which time all treated plants were compared to untreated controls and visually evaluated for injury. Plant response ratings, summarized in Table B, are based on a 0 to 100 scale where 0 is no effect and 100 is complete control. A dash (-) response means no test result.
# [2] = test system: Italian ryegrass (Lolium multiflorum); assay: Test B pre-/postemergence plant response
# From the text: as §1
# [3] = test system: wheat (Triticum aestivum); assay: Test B pre-/postemergence plant response
# From the text: as §1
# kochia (Kochia scoparia) = assay: Test B pre-/postemergence plant response
# From the text: as §1
# [4] = test system: giant foxtail (Setaria faberii); assay: Test B pre-/postemergence plant response
# From the text: as §1
# [5] = test system: pigweed (Amaranthus retroflexus); assay: Test B pre-/postemergence plant response
# From the text: as §1
# [6] = test system: ragweed (common ragweed, Ambrosia elatior); assay: Test B pre-/postemergence plant response
# From the text: as §1
# corn (Zea mays) = assay: Test B pre-/postemergence plant response
# From the text: as §1
# [7] = test system: blackgrass (Alopecurus myosuroides); assay: Test B postemergence plant response
# From the text: (§2) At the same time, plants selected from these crop and weed species and also blackgrass (Alopecurus myosuroides), and galium (catchweed bedstraw, Galium aparine) were planted in pots containing the same blend of loam soil and sand and treated with postemergence applications of test chemicals formulated in the same manner. Plants ranged in height from 2 to 10 cm and were in the one- to two-leaf stage for the postemergence treatment. Treated plants and untreated controls were maintained in a greenhouse for approximately 10 days, after which time all treated plants were compared to untreated controls and visually evaluated for injury. Plant response ratings, summarized in Table B, are based on a 0 to 100 scale where 0 is no effect and 100 is complete control. A dash (-) response means no test result.
# [8] = test system: galium (catchweed bedstraw, Galium aparine); assay: Test B postemergence plant response
# From the text: as §2
# [9] = test system: barnyardgrass (Echinochloa crus-galli); assay: Test C flooded paddy test plant response; details: Flood, 250 g ai/ha; scale of 0 to 100 where 0 is no effect and 100 is complete control; 13 to 15 days
# Protocol: (§3) Plant species in the flooded paddy test selected from rice (Oryza sativa), small-flower umbrella sedge (Cyperus difformis), ducksalad (Heteranthera limosa), and bamyardgrass (Echinochloa crus-galli) were grown to the 2-leaf stage for testing. At time of treatment, test pots were flooded to 3 cm above the soil surface, treated by application of test compounds directly to the paddy water, and then maintained at that water depth for the duration of the test. Treated plants and controls were maintained in a greenhouse for 13 to 15 days, after which time all species were compared to controls and visually evaluated. Plant response ratings, summarized in Table C, are based on a scale of 0 to 100 where 0 is no effect and 100 is complete control. A dash (-) response means no test result.
# rice (Oryza sativa) = assay: Test C flooded paddy test plant response; details: Flood, 250 g ai/ha; scale of 0 to 100 where 0 is no effect and 100 is complete control; 13 to 15 days
# Protocol: as §3
# [10] = test system: ducksalad (Heteranthera limosa); assay: Test C flooded paddy test plant response; details: Flood, 250 g ai/ha; scale of 0 to 100 where 0 is no effect and 100 is complete control; 13 to 15 days
# Protocol: as §3
# [11] = test system: small-flower umbrella sedge (Cyperus difformis); assay: Test C flooded paddy test plant response; details: Flood, 250 g ai/ha; scale of 0 to 100 where 0 is no effect and 100 is complete control; 13 to 15 days
# Protocol: as §3
# [12] = 31 g ai/ha, Postemergence, 0 to 100 scale, 0 no effect, 100 complete control
# [13] = 125 g ai/ha, postemergence, 0 to 100 scale, 0 no effect, 100 complete control
# [14] = Preemergence, 31 g ai/ha, 0 to 100 scale (0 no effect, 100 complete control)
# [15] = Preemergence, 125 g ai/ha, 0 to 100 scale where 0 is no effect and 100 is complete control
# [16] = Postemergence, 500 g ai/ha, 0 to 100 scale (0 no effect, 100 complete control)
# [17] = Preemergence, 500 g ai/ha, 0 to 100 scale where 0 is no effect and 100 is complete control
SMILES,"Plant response rating, Barnyardgrass [1, 13]","Plant response rating, Barnyardgrass [1, 15]","Plant response rating, Ryegrass, Italian [2, 13]","Plant response rating, Ryegrass, Italian [2, 15]","Plant response rating, Wheat [3, 13]","Plant response rating, Kochia (kochia (Kochia scoparia); [13])","Plant response rating, Kochia (kochia (Kochia scoparia); [15])","Plant response rating, Foxtail, Giant [4, 13]","Plant response rating, Foxtail, Giant [4, 15]","Plant response rating, Pigweed [5, 13]","Plant response rating, Pigweed [5, 15]","Plant response rating, Ragweed [6, 13]","Plant response rating, Ragweed [6, 15]","Plant response rating, Corn (corn (Zea mays); [13])","Plant response rating, Blackgrass [7, 13]","Plant response rating, Galium [8, 13]",Barnyardgrass plant response rating [9],Rice plant response rating (rice (Oryza sativa)),Ducksalad plant response rating [10],"Sedge, Umbrella plant response rating [11]",also measured
N#Cc1cc(-c2ccccc2Oc2ncc(Cl)cn2)no1 [Compound 38],0,0,0,0,0,30,0,0,0,20,40,0,0,0,0,30,0,0,60,0,"Plant response rating, Barnyardgrass [1, 12]: 0; Barnyardgrass plant response rating [1, 14]: 0; Plant response rating, Ryegrass, Italian [2, 12]: 0; Ryegrass, Italian plant response rating [2, 14]: 0; Plant response rating, Wheat [3, 12]: 0; Plant response rating, Kochia (kochia (Kochia scoparia); [12]): 0; Kochia plant response rating (kochia (Kochia scoparia); [14]): 0; Plant response rating, Foxtail, Giant [4, 12]: 0; Foxtail, Giant plant response rating [4, 14]: 0; Plant response rating, Pigweed [5, 12]: 0; Pigweed plant response rating [5, 14]: 0; Plant response rating, Ragweed [6, 12]: 0; Ragweed plant response rating [6, 14]: 0; Plant response rating, Corn (corn (Zea mays); [12]): 0; Plant response rating, Blackgrass [7, 12]: 0; Plant response rating, Galium [8, 12]: 20"
Cn1nnnc1-c1ccccc1Oc1ncc(Cl)cn1 [Compound 47],0,0,0,0,0,60,60,0,10,50,30,20,10,0,0,30,0,0,0,0,"Plant response rating, Barnyardgrass [1, 16]: 0; Plant response rating, Barnyardgrass [1, 17]: 0; Plant response rating, Ryegrass, Italian [2, 16]: 0; Plant response rating, Ryegrass, Italian [2, 17]: 0; Plant response rating, Wheat [3, 16]: 10; Plant response rating, Kochia (kochia (Kochia scoparia); [16]): 80; Plant response rating, Kochia (kochia (Kochia scoparia); [17]): 70; Plant response rating, Foxtail, Giant [4, 16]: 50; Plant response rating, Foxtail, Giant [4, 17]: 30; Plant response rating, Pigweed [5, 16]: 70; Plant response rating, Pigweed [5, 17]: 60; Plant response rating, Ragweed [6, 16]: 30; Plant response rating, Ragweed [6, 17]: 60; Plant response rating, Corn (corn (Zea mays); [16]): 0; Plant response rating, Blackgrass [7, 16]: 0; Plant response rating, Galium [8, 16]: 60"
Cn1nnc(-c2ccccc2Oc2ncc(Cl)cn2)n1 [Compound 48],0,0,0,40,0,50,60,0,10,70,80,50,50,0,40,70,0,0,0,0,"Plant response rating, Barnyardgrass [1, 16]: 0; Plant response rating, Barnyardgrass [1, 17]: 40; Plant response rating, Ryegrass, Italian [2, 16]: 0; Plant response rating, Ryegrass, Italian [2, 17]: 50; Plant response rating, Wheat [3, 16]: 0; Plant response rating, Kochia (kochia (Kochia scoparia); [16]): 100; Plant response rating, Kochia (kochia (Kochia scoparia); [17]): 80; Plant response rating, Foxtail, Giant [4, 16]: 40; Plant response rating, Foxtail, Giant [4, 17]: 50; Plant response rating, Pigweed [5, 16]: 100; Plant response rating, Pigweed [5, 17]: 100; Plant response rating, Ragweed [6, 16]: 70; Plant response rating, Ragweed [6, 17]: 60; Plant response rating, Corn (corn (Zea mays); [16]): 10; Plant response rating, Blackgrass [7, 16]: 60; Plant response rating, Galium [8, 16]: 100"
Cn1nnnc1-c1ccccc1Oc1ncc(Br)cn1 [Compound 49],0,0,0,0,10,30,0,0,0,10,20,30,0,0,0,20,0,0,0,0,"Plant response rating, Barnyardgrass [1, 16]: 10; Plant response rating, Barnyardgrass [1, 17]: 0; Plant response rating, Ryegrass, Italian [2, 16]: 0; Plant response rating, Ryegrass, Italian [2, 17]: 0; Plant response rating, Wheat [3, 16]: 20; Plant response rating, Kochia (kochia (Kochia scoparia); [16]): 30; Plant response rating, Kochia (kochia (Kochia scoparia); [17]): 70; Plant response rating, Foxtail, Giant [4, 16]: 10; Plant response rating, Foxtail, Giant [4, 17]: 20; Plant response rating, Pigweed [5, 16]: 30; Plant response rating, Pigweed [5, 17]: 30; Plant response rating, Ragweed [6, 16]: 30; Plant response rating, Ragweed [6, 17]: 0; Plant response rating, Corn (corn (Zea mays); [16]): 10; Plant response rating, Blackgrass [7, 16]: 10; Plant response rating, Galium [8, 16]: 60"
Cn1cc(-c2ccccc2Oc2ncc(Cl)cn2)nn1 [Compound 51],0,0,0,0,0,70,10,10,10,70,50,20,50,0,0,60,0,0,30,0,"Plant response rating, Barnyardgrass [1, 16]: 0; Plant response rating, Barnyardgrass [1, 17]: 10; Plant response rating, Ryegrass, Italian [2, 16]: 0; Plant response rating, Ryegrass, Italian [2, 17]: 0; Plant response rating, Wheat [3, 16]: 10; Plant response rating, Kochia (kochia (Kochia scoparia); [16]): 100; Plant response rating, Kochia (kochia (Kochia scoparia); [17]): 70; Plant response rating, Foxtail, Giant [4, 16]: 50; Plant response rating, Foxtail, Giant [4, 17]: 60; Plant response rating, Pigweed [5, 16]: 80; Plant response rating, Pigweed [5, 17]: 100; Plant response rating, Ragweed [6, 16]: 60; Plant response rating, Ragweed [6, 17]: 50; Plant response rating, Corn (corn (Zea mays); [16]): 0; Plant response rating, Blackgrass [7, 16]: 50; Plant response rating, Galium [8, 16]: 90"

# From patent US10131652B2, “Pyrimidinyloxy benzene derivatives as herbicides” (E. I. DU PONT DE NEMOURS AND COMPANY, priority 2014, dated 2018)
